In the assay the test system is CEM cells HIV-1 protection, formazan growth assay. As to the kind of experiment: NCI AIDS Antiviral Assay. The following applies: for pIC50: measured here: growth of uninfected CEM cells. The procedure, abridged:
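CEM (human) cells, HIV-1 infected vs uninfected, 5-point dosing, formazan growth read-out. Retest threshold 50% protection.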

pEC50, pIC50: −log10 of the molar value. Active and inactive are the calls of the source.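 The calls were made as follows: active = compounds giving half or more protection of infected cells from virus-caused growth loss, again on retest; inactive = the rest.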

The record followed here is PubChem BioAssay AID179 (DTP/NCI, 2004).

With `CC(C)(C)c1ccc(CN2CCN(C(c3ccccc3)c3ccc(Cl)cc3)CC2)cc1` (configuration not stated), the pEC50 was < 3.70 and the pIC50 is 3.94.
In the same order, the values of `CC(C)(NO)/C(=N\O)c1ccco1` are < 3.70 and < 3.70.
As to `O=C1Nc2cnc(Cl)nc2Nc2ccccc21`, the pEC50 was < 4.12 and the pIC50 is < 4.12.
For `CC1(C)CC2(C)OC(=N)C1(C#N)C2(C#N)C#N` (configuration not stated), the pEC50 is < 3.70 and the pIC50 is 5.63.
In the same order, the values of `O=[N+]([O-])c1cnc(-c2ccc(F)cc2)n1CCO` are < 3.70 and < 3.70.
In the same order, the values of `CN1C(=O)NC2(O)c3ccccc3C(=O)C12O` (configuration not stated) are < 2.97 and < 2.97.
`CN(C)c1ccc(/C=C/C(=O)O)cc1`: the pEC50 is < 2.94 and the negative-log IC50 (pIC50) was < 2.94.
Consider `O=[N+]([O-])c1cccc(/C=N\NS(=O)(=O)c2ccc(Cl)cc2)c1O`, for which the pEC50 was < 3.44 and the pIC50 is 4.21.
As for `COc1ccc(/C=C/C(=O)c2sc(NC(=S)NC(=O)c3ccc(Cl)cc3)nc2C)cc1OC`, the pEC50 is < 4.43 and the negative-log IC50 (pIC50) is < 4.43.
Take `O=C1C(C2CCCCC2)=C2OCC3COC2(O3)c2ccccc21` (configuration not stated): the pEC50 was < 4.13 and the negative-log IC50 (pIC50) is 4.52.
In the same order, the values of `Cc1[nH]c(=O)[nH]c(=O)c1CO` are < 3.70 and 3.98.
In the same order, the values of `CCOC(=O)[C@@H]1ON2O[C@H](OC3CCCC3(c3ccccc3)c3ccccc3)C[C@H]3OC(=O)[C@@H]1C32` (some centres not stated) are < 3.70 and 4.49.
For `COc1ccc(-c2[nH]c(-c3ccc(OC)cc3)c(-c3ccccn3)c2-c2ccccn2)cc1` the same measures were < 3.70 and 4.61.
Take `CCOC(=O)c1ccc(CSc2ccccc2)cc1`: the pEC50 is < 4.58 and the negative logarithm of the IC50 (pIC50) was < 4.58.
As to `COc1ccc2c(c1)[n+](=O)c(C(=O)CC(=O)C(=O)Nc1cccc(C)c1C)c(C)n2[O-]`, the pEC50 was < 3.93 and the pIC50 is < 3.93.
As for `COc1ccccc1C1C(C#N)C(=O)NC(=O)C1C#N` (configuration not stated), the pEC50 is < 3.70 and the pIC50 is < 3.70.
Take `O=C(NNC(=O)c1cccc(C(=O)NNC(=O)c2ccc(Cl)c(Cl)c2)n1)c1ccc(Cl)c(Cl)c1`: the pEC50 was < 3.70 and the negative logarithm of the IC50 (pIC50) was 5.97.
As for `Nc1nc(Cl)c(Cl)nc1C(=O)O`, the pEC50 is < 3.70 and the pIC50 is 3.93.
For the molecule `CC1(C)CC(=O)c2c([nH]c(=S)c(C#N)c2-c2ccc(Br)cc2)C1`, the pEC50 was < 3.70 and the pIC50 was 4.36.
In the same order, the values of `Cc1nnc(N)nc1/C=C\c1ccc(N(C)C)cc1` are < 3.70 and 5.46.
For `CC(=O)OCCOCN1C(=O)NC(=O)/C(=C/c2cccc(OCc3ccccc3)c2)C1=O` the same measures were < 3.70 and 4.74.
Consider `[pH]1p2[pH]p3p1p3[pH]2.c1cc[c]([Ge]([c]2ccccc2)[c]2ccccc2)cc1.c1cc[c]([Ge]([c]2ccccc2)[c]2ccccc2)cc1.c1cc[c]([Ge]([c]2ccccc2)[c]2ccccc2)cc1`, for which the outcome was inactive.
Consider `O=S1(=O)OCCOS(=O)(=O)C1Cc1nc2ccccc2[nH]1`, for which the pEC50 is < 3.70 and the pIC50 was 4.49.
For `CC1SC2=NC3=C(c4ccccc4C3=O)C(c3ccc(Cl)cc3)N2C1=O` (configuration not stated) the same measures were < 4.45 and < 4.45.
For `O=C(O)[C@@H]1CCS(=O)(=O)N1` the same measures were < 3.70 and < 3.70.
For `COC(=O)Cc1cc(=O)n2c3ccccc3n(C)c2c1C#N`, the pEC50 is < 4.61 and the negative logarithm of the IC50 (pIC50) was < 4.61.
On to `CN(C)C1C(=O)C(C(=O)NCNCCC(=O)O)=C(O)C2(O)C(=O)C3=C(O)c4c(O)cccc4C(C)(O)C3CC12` (configuration not stated), for which the pEC50 is < 4.95 and the negative-log IC50 (pIC50) was < 4.95.
In the case of `C=C1C(=O)OC2CC(C)C(C(CC(C)=O)OC(C)=O)=CCC12` (configuration not stated), the pEC50 is < 3.49 and the negative-log IC50 (pIC50) is 5.80.
For `CC(O)C1=CCC2c3[nH]c4ccccc4c3CCN2C1` (configuration not stated) the same measures were < 4.63 and < 4.63.
Turning to `O=C1CCC(N2C(=O)C3C(C2=O)C2(Cl)C(Cl)=C(Cl)C3(Cl)C2(Cl)Cl)C(=O)N1` (configuration not stated), the pEC50 is < 3.70 and the negative logarithm of the IC50 (pIC50) was < 3.70.
`CC(C)[Si](OC1=C(C(=O)N(C)c2cccc(Cl)c2)CCCC1)(C(C)C)C(C)C`: the pEC50 is < 3.70 and the pIC50 is 5.01.
In the same order, the values of `CC1(C)CN=C(Nc2cccc(C(F)(F)F)c2)S1` are < 3.70 and 4.38.
On to `BrC(Br)([P+](c1ccccc1)(c1ccccc1)c1ccccc1)[P+](c1ccccc1)(c1ccccc1)c1ccccc1`, for which the outcome was inactive.
Same read-out and setting: for `Nc1nccc2c([N+](=O)[O-])cccc12` the value was “inactive”.
On to `CCN(CC)CCOC(=O)C(Cc1cccc2ccccc12)CC1CCCO1` (configuration not stated), for which the pEC50 is < 3.70 and the negative-log IC50 (pIC50) is < 4.00.
In the same order, the values of `C[C@H](CCC1=NCCN1)[C@H]1CC[C@H]2[C@@H]3CC[C@@H]4C[C@H](O)CC[C@]4(C)[C@H]3CC[C@]12C` are < 4.00 and 4.86.
On to `CCC1OC(=O)C(C)C(OC2CC(C)(O)C(O)C(C)O2)C(C)C(O)C(C)(O)CC(C)C(=O)C(C)C(O)C1C` (configuration not stated), for which the pEC50 was < 3.64 and the negative logarithm of the IC50 (pIC50) was 4.67.
As for `Cn1cnc2nc3ncn(C)c3cc21`, the pEC50 is < 3.70 and the negative logarithm of the IC50 (pIC50) was < 3.70.
`O=C(Nc1ccccc1)c1cc(S(=O)(=O)N2CCNNC2=O)c(S)cc1Cl`: the pEC50 was 4.99 and the negative logarithm of the IC50 (pIC50) is 3.78.
In the same order, the values of `CC(Cc1cccc2c1Nc1ccccc1S2)N(C)CCO` (configuration not stated) are < 3.70 and 4.47.
For `N#Cc1c(N)c(C(=O)Nc2ccc(S(N)(=O)=O)cc2)n2c1CCC2` the same measures were < 3.70 and < 3.70.
For `CC1=NN2C(=O)C(c3ccccc3)SC2=NC(C)(C)C1` (configuration not stated) the same measures were < 3.34 and < 3.34.
As for `C[C@@]12[C@H]3CC[C@@H]1[C@H](O)C(=O)N2CC3`, the pEC50 is < 3.70 and the negative-log IC50 (pIC50) is < 3.70.
In the case of `COc1ccc(-c2nc(Sc3c([N+](=O)[O-])ncn3C)n[nH]2)cc1`, the pEC50 was < 3.27 and the negative-log IC50 (pIC50) is 6.25.
For `O=C(c1ccc2c(c1)OCO2)N1OC2C=CC1CC2` (configuration not stated) the same measures were < 3.02 and 3.29.
With `CC(C)C(N)=Nc1ccc(Cl)c(Cl)c1`, the pEC50 is < 3.70 and the negative-log IC50 (pIC50) was 4.14.
In the same order, the values of `CCOC(=O)C(c1ccsc1)P(=O)(OCC)OCC` (configuration not stated) are < 3.09 and 4.55.
In the case of `N#CCN1CCOCCOCCN(CC#N)CCOCCOCC1`, the outcome was inactive.
Turning to `CSc1c(C(=O)Nc2ccc(C)cc2)c(N)[nH]c(=O)c1C#N`, the pEC50 is < 4.02 and the pIC50 was 4.12.
As to `OC12c3ccccc3C1CCCCCC21OCCCO1` (configuration not stated), the pEC50 was < 3.70 and the pIC50 is < 3.70.
For the molecule `CCCCCCCCCCCCCCCCSS(C)(=O)=O`, the pEC50 is < 4.86 and the negative logarithm of the IC50 (pIC50) was 5.16.
For the molecule `Cc1ccc(-c2nc(-c3cnccn3)n(C3OC(CO)C(O)C(O)C3O)n2)cc1` (configuration not stated), the pEC50 was < 3.70 and the pIC50 is < 3.70.
`Cc1ccc(N=C2N=C(N3CC(C)OC(C)C3)c3ccccc32)cc1` (configuration not stated): the pEC50 is < 3.97 and the pIC50 was 4.58.
Turning to `COC(=O)c1c2c(cc3c1CC1(Cc4cc5c(c(C(C)=O)c4C1)CCC5)C3)CCC2` (configuration not stated), the pEC50 was < 5.19 and the pIC50 was < 5.19.
As for `N=c1c2c3n(c4c(=O)n(-c5ccccc5)c(=S)n(c(=O)n1-c1ccccc1)c24)CCCCC3`, the pEC50 was < 4.00 and the negative logarithm of the IC50 (pIC50) is < 4.00.
On to `[Cl-].[Cl-].[Pt+4].[S-]c1ncccn1.[S-]c1ncccn1`, for which the pEC50 is < 4.00 and the negative logarithm of the IC50 (pIC50) was 6.45.
`O=C(CC(C(=O)c1ccsc1)c1cccs1)c1cccs1` (configuration not stated): the pEC50 is < 4.66 and the pIC50 is < 4.66.
On to `COC1(OC)/C(=C(\N)C=O)NC(C)(C)N1O`, for which the result was inactive.
For the molecule `Cc1ccc(S(=O)(=O)SC(C)(C)C)cc1`, the pEC50 was < 4.53 and the negative-log IC50 (pIC50) was 5.03.
For the molecule `Cc1ccc(S(=O)(=O)SSSSS(=O)(=O)c2ccc(C)cc2)cc1`, the pEC50 is < 4.51 and the pIC50 is < 4.51.
In the case of `Cn1cc(NC(=O)Nc2cc(C(=O)Nc3ccc4cc(S(=O)(=O)O)cc(S(=O)(=O)O)c4c3)n(C)c2)cc1C(=O)Nc1ccc2cc(S(=O)(=O)O)cc(S(=O)(=O)O)c2c1`, the negative-log EC50 (pEC50) is 4.10 and the pIC50 is < 3.70.
For `CCCCc1ccc(Nc2nc(=S)c3[nH]cnc3[nH]2)cc1` the same measures were < 3.70 and 4.35.
As for `O=C1CC(c2ccc(O)cc2)C2(O1)C(=O)OC1C(O)COC12O` (configuration not stated), the outcome was inactive.
For the molecule `CC(C)c1ccc2nc3ccc(C(=O)NCCN(C)C)cn3c(=O)c2c1`, the pEC50 was < 3.70 and the negative logarithm of the IC50 (pIC50) was 4.90.
In the same order, the values of `COc1ccc2c(c1)CCC(c1ccccc1)=C2c1ccc(OCCN2CCCC2)cc1` are < 3.70 and 5.43.
For `CN(C)c1ccc(/C=C/c2sc3ccccc3[n+]2C)cc1` the same measures were < 4.32 and 6.24.
For `CC(=O)N(C(=O)CC(=O)N1N=C(c2ccccc2)C(N=Nc2ccccc2[N+](=O)[O-])C1=O)c1ccc(Cl)cc1` (configuration not stated) the same measures were 3.78 and < 3.70.
On to `COc1ccc2c(c1)C(=O)C1CC(=O)CCC21` (configuration not stated), for which the pEC50 is < 3.54 and the negative logarithm of the IC50 (pIC50) was < 3.54.
Turning to `CNC(=O)N(C1CCCCC1)C1CCCCC1`, the pEC50 was < 3.70 and the pIC50 is 3.96.
For `CN1C(=O)c2ccccc2OC12C=Cc1ccc(O)cc1O2` (configuration not stated) the same measures were < 3.88 and 4.34.
For `O=C(N=C1[Se]C(=Nc2ccccc2)C(=Nc2ccccc2)N1c1ccccc1)c1ccc([N+](=O)[O-])cc1` the same measures were < 3.70 and < 3.70.
Regarding `O=c1n(-c2ccccc2)c(=O)n2n1C1C=CC2C2C(C1)C2(Cl)Cl` (configuration not stated), the result was inactive.

One may read the pEC50 as the EC50 on a negative log10 scale, so that one unit is a factor of ten. What is called pIC50 is the IC50 on a negative log10 scale, so that one unit is a factor of ten. A low value points to a high IC50.
